In patent publication US12569474B2, “Compositions and methods for treating anemia” (Akebia Therapeutics, Inc., priority 2013, dated 2026):
“Also recorded” adds a separate entry of the source.

Columns and labels:
healthy male adults [1] = test: Phase 1a single ascending dose (SAD) study, EPO response; format: in vivo, human
healthy male adults [2] = test: Phase 1b multiple ascending dose (MAD) study, EPO response; format: in vivo, human
healthy adult males = test: Phase I clinical trials in healthy adult males (overall); format: in vivo, human
Excerpt: This was a surprising result for a number of reasons. […] Thus, particularly with regard to patients having a disease or condition associated with kidney impairment, a person of skill in the art would not expect that administration of a compound provided herein could cause an increase in a patient's serum hemoglobin levels while also mimicking the diurnal variation of serum EPO levels in healthy individuals and without raising the patients' baseline serum EPO levels.

[3] = tested on: patients having anemia secondary to CKD; test: Compound 1 at 500 mg in patients having anemia secondary to CKD: EPO levels and half-life over 24 hours; format: in vivo, human
Excerpt: Current treatment of anemia associated with chronic kidney disease (CKD) with erythropoiesis-stimulating agents (ESAs) can lead to supraphysiological levels of circulating erythropoietin (EPO) that persist for days, a profile that may be associated with increased cardiovascular side effects and thromboembolic events. […] In a randomized double-blind, placebo-controlled Phase 2a trial, 93 patients with CKD stage 3, 4, or 5 (not on dialysis) received placebo or Compound 1 in the following dose groups: 240, 370, 500, or 630 mg once daily for 6 weeks. […]

[4] = tested on: patients with CKD stage 3, 4, or 5 (not on dialysis); test: Randomized double-blind, placebo-controlled Phase 2a trial, 6 weeks; format: in vivo, human
Excerpt: Current treatment of anemia associated with chronic kidney disease (CKD) with erythropoiesis-stimulating agents (ESAs) can lead to supraphysiological levels of circulating erythropoietin (EPO) that persist for days, a profile that may be associated with increased cardiovascular side effects and thromboembolic events. […] In a randomized double-blind, placebo-controlled Phase 2a trial, 93 patients with CKD stage 3, 4, or 5 (not on dialysis) received placebo or Compound 1 in the following dose groups: 240, 370, 500, or 630 mg once daily for 6 weeks. […] Erythropoietin was measured at baseline, week 2, end of treatment and follow up.
In a randomized double-blind, placebo-controlled Phase 2a clinical trial, 93 patients with CKD stage 3, 4, or 5 (not on dialysis) received placebo or Compound 1 in the following dose groups: 240, 370, 500, or 630 mg once daily for 6 weeks. […] TIBC and serum iron levels were measured at baseline, week 2, week 4, end of treatment (week 6) and follow up.
In a randomized double-blind, placebo-controlled Phase 2a trial, 93 patients with CKD stage 3, 4, or 5 (not on dialysis) received placebo or Compound 1 in the following dose groups: 240, 370, 500, or 630 mg once daily for 6 weeks.

[5] = tested on: patients with Stage 3 or 4 CKD; test: Phase 2a dose escalation study, 28 days; format: in vivo, human
Procedure: In a Phase 2a dose escalation study, 10 CKD patients received Compound 1 once daily for 28 days. Dosing began at 400 mg in CKD Stage 3 patients and 300 mg in CKD Stage 4 patients.

[6] = Clinical data obtained to date (summary over studies); format: in vivo, human
Excerpt: Furthermore, this is achieved with a modest increase in the daily peak level of EPO, but with no increase in basal (pre-dose) levels (in a manner that mimics the physiologic diurnal response in healthy individuals).

[7] = tested on: EPO production in Hep3B cells; test: In Vitro EPO Induction Assay (secreted EPO immunoassay); format: cell-based, human
Procedure: (§1) Materials and Methods: Cell Culture: Human hepatocellular carcinoma (Hep3B) cells were obtained from the American Type Culture Collection (ATCC, Mannassas, VA) and cultured according to ATCC recommendations. Cells were cultured at 37° C. in an atmosphere of 95% air and 5% C02 in a humidified incubator. Compound 13 was diluted to a stock concentration of 50 mM in DMSO (Sigma).
(§2) Cell Treatments: Hep3B cells were plated on 24 well plates. Subsets of Hep3B cultures were transfected with a HIF reporter plasmid (pHRE-luciferase) overnight. (See Sheta, et al., Oncogene. 2001 Nov. 15; 20(52):7624-34.) Cells were exposed to vehicle (1:1000 DMSO) or test Compound 13 at 50 m for 18 hours at 37° C. in an atmosphere of 95% air and 5% CO2 in a humidified incubator.
(§3) Analysis: After 48-hour culture, cell supernatants were subsequently collected, centrifuged at 15,000×g for 15 minutes at 4° C. to sediment debris.
In Vitro EPO Induction Assay: Secreted EPO levels were assayed by specific immunoassay (MesoScale Discovery, Gaithersburg, MD) in accordance with manufacturer's instructions.
(§4) Compound 13 was assayed in duplicate. Fold change over the vehicle control was calculated. Compound 13 was tested at a concentration of 50 m. […] Resulting values for the In Vitro EPO Induction Assay, and In Vitro HIF Prolyl Hydroxylase Inhibition Assay are shown in Table 1 and Table 2.

HIF prolyl hydroxylase = test: In Vitro HIF Prolyl Hydroxylase Inhibition Assay (HRE luciferase reporter); format: cell-based, human
Procedure: as §1, §2, §3
In Vitro HIF Prolyl Hydroxylase Inhibition Assay: Cell lysates were assayed using the dual luciferase reporter-assay (Promega, Madison, WI, USA). Observed firefly luciferase activity was normalized to a co-transfected Renilla luciferase.
as §4

[8] = 240, 370, 500, or 630 mg once daily for 6 weeks, all dose groups, ANOVA p<0.0001

## O=C(O)CNC(=O)c1ncc(-c2cccc(Cl)c2)cc1O [Compound 1, {[5-(3-chlorophenyl)-3-hydroxypyridine-2-carbonyl]amino}acetic acid]
Healthy male adults [1]; 600 mg cohort, 8 hours, p=0.034
  EPO increase compared to placebo: significant increase
Healthy male adults [1]; 900 and 1200 mg groups, 8, 12, 18, and 24 hours following dosing, p<0.01
  EPO rise compared to placebo: significant, dose-dependent rises
Healthy male adults [2]; multiple ascending dose
  Peak EPO concentration: dose responsive increase
Healthy male adults [2]; regardless of the dosing group
  EPO concentration prior to the next morning dose: essentially returned to baseline
Healthy adult males; Phase 1 studies
  Rise in EPO relative to dose: proportionate to the dose
Healthy adult males; healthy adult males
  Serum EPO levels after administration: returned to approximately baseline levels within twenty-four hours
  Serum hemoglobin levels: able to increase serum hemoglobin levels
[3]; CKD patients vs healthy adult males
  Half-life in patients with anemia secondary to CKD compared to healthy individuals: approximately twice as long; also recorded: significantly longer
[3]; dose of 500 mg, patients having anemia secondary to CKD
  Time to return to baseline EPO levels: ≤ 24 h
[4]; [8]
  HGB (hemoglobin) at Week 6 compared to baseline and to placebo: able to increase serum hemoglobin levels; also recorded: significantly increased HGB; also recorded: significantly increased hemoglobin levels
  TIBC at Week 6 compared to baseline and to placebo: able to increase TIBC levels; also recorded: significantly increased TIBC
[4]; 240-630 mg once daily
  TIBC dose relation at Week 6: dose-related increase in TIBC; also recorded: dose-related increase in total iron binding capacity
[4]; Week 6
  Serum iron levels relative to baseline: not associated with an increase in serum iron levels; also recorded: without increasing serum iron levels
  TSAT at Week 6: decrease in TSAT
[4]; low doses, such as the 240 mg group, Week 6
  Hepcidin expression at low doses: not accompanied by a decrease in hepcidin expression
[4]; measured at baseline, week 2, end of treatment and follow up
  Serum levels of EPO over time: did not increase significantly over time
[4]; mimicking the physiologic diurnal response
  Daily EPO levels in CKD patients: moderate daily increases in EPO levels
[4]; prior to daily dose, 6 weeks
  Basal (pre-dose) EPO levels: without increasing basal (pre-dose) EPO levels
[4]; starting from the lowest dose (240 mg)
  HGB dose response: clear dose-responsive increase in HGB
[5]; 10 CKD Stage 3 and 4 patients, once daily 28 days, start 400 mg (Stage 3) or 300 mg (Stage 4), +100 mg steps, baseline 9.91 g/dL
  Hemoglobin by Day 29: 10.54 g/dL
[5]; 10 CKD Stage 3 and 4 patients, once daily 28 days, baseline 334.10 ng/mL
  Ferritin by Day 29: 271.70 ng/mL
[5]; patients with Stage 3 or 4 CKD, 28 days
  Tolerability: well-tolerated
[6]; dose responsive changes
  Hepcidin and ferritin: decreases in hepcidin and ferritin
  Total iron binding capacity: increase in total iron binding capacity
[6]; human, in vivo
  Baseline EPO: without increasing baseline EPO
[6]; similar to the physiologic diurnal response
  EPO levels (daily): modest dose-proportional daily increases in EPO levels

## NCCNC(=O)c1ncccc1O [Compound 13, N-(2-aminoethyl)-3-hydroxy-pyridine-2-carboxamide]
[7]; Compound 13, 18 hours, assayed in duplicate, vehicle 3.0736
  Mean [EPO]: 8.9137 mIU/mL
[7]; Compound 13, inactive if ≤1.0 fold over control
  Fold Change (EPO, over vehicle control): 2.9001
[7]; vs DMSO vehicle
  EPO production (result in words): increase EPO production
HIF prolyl hydroxylase; Hep3B cells transfected with pHRE-luciferase, Compound 13 at 50 µM, firefly normalized to Renilla, vehicle 1
  Mean HIF PH Inhibition Activity (Relative Luciferase): 3.6
HIF prolyl hydroxylase; Hep3B cells, 50 µM, vs DMSO vehicle
  HIF prolyl hydroxylase enzyme activity (result in words): inhibit HIF prolyl hydroxylase enzyme activity
HIF prolyl hydroxylase; Hep3B cells, Compound 13 at 50 µM, inactive if ≤1.0 fold over control
  Fold Change (HIF PH inhibition activity, over vehicle control): 3.6
